We go through six compounds from US8710074B2, “Dihydronaphthyridinyl(organo)methanone analogs as positive allosteric mGluR5 modulators” (Vanderbilt University, priority 2011, dated 2014).

As usually defined, the EC50 is the midpoint of the concentration-response curve.

Sequence of human mGluR5 (P41594 21-1180 isoform P41594-2 limits assumed): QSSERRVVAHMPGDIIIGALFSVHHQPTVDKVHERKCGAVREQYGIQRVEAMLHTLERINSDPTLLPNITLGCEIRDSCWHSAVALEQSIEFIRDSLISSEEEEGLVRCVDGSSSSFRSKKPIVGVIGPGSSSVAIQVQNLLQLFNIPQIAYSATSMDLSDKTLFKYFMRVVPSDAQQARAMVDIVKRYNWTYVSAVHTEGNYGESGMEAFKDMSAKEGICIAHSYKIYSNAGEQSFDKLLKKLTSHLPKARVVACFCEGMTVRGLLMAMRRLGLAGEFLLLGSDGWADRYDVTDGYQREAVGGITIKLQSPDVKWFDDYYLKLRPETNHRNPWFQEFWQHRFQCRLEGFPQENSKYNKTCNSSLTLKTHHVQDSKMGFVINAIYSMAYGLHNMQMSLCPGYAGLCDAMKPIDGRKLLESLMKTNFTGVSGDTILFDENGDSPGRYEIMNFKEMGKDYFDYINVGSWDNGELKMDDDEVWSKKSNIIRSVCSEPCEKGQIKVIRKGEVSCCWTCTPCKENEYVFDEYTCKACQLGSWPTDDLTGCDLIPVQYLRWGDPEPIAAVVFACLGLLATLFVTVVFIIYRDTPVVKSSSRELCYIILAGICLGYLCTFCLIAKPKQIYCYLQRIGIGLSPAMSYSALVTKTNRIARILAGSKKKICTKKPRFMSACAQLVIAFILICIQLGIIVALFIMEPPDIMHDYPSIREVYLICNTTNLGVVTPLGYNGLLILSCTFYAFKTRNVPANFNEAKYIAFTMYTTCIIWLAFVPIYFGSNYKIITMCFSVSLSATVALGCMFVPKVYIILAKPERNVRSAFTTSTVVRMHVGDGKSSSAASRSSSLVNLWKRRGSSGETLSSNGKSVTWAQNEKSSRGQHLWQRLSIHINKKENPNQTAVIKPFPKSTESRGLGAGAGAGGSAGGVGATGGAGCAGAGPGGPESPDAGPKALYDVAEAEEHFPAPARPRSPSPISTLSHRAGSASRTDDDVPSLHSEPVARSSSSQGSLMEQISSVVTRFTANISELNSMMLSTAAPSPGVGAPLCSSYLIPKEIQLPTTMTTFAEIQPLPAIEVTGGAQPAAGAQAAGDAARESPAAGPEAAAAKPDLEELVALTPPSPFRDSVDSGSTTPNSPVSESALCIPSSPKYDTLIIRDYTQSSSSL

The assay concerns the target human mGluR5 (Homo sapiens, UniProt P41594). The experiment in a line: Cell-based functional assay: Ca2+ mobilization (FDSS), potentiation of glutamate EC20 response. As to conditions: HEK cells transfected with human mGluR5 (H10H or H12H cell line); positive allosteric modulation in presence of glutamate EC20. The protocol:
Human embryonic kidney (HEK) cells transfected with rat mGluR5 were plated in clear bottom assay plates for assay in a Functional Drug Screening System (FDSS). In the alternative assay, HEK cells transfected with human mGluR5 were plated for assay in the FDSS. In some cases the HEK cells transfected with human mGluR5 were the H10H cell line. Alternatively, the HEK cells transfected with human mGluR5 were the H12H cell line. […] The cells were loaded with a Ca^2+-sensitive fluorescent dye (e.g., Fluo-4), and the plates were washed and placed in the FDSS instrument. After establishment of a fluorescence baseline for twelve seconds, the compounds of the present invention were added to the cells, and the response in cells was measured. Alternatively, in various further aspects, after establishment of a fluorescence baseline for about three seconds, the compounds of the present invention were added to the cells, and the response in cells was measured. Five minutes later, an mGluR5 agonist (e.g., glutamate, 3,5-dihydroxyphenylglycine, or quisqualate) was added to the cells, and the response of the cells was measured. Potentiation of the agonist response of mGluR5 by the compounds in the present invention was observed as an increase in response to non-maximal concentrations of agonist (here, glutamate) in the presence of compound compared to the response to agonist in the absence of compound.
The above described assay operated in two modes. In the first mode, a range of concentrations of the present compounds were added to cells, followed by a single fixed concentration of agonist. If a compound acted as a potentiator, an EC50 value for potentiation and a maximum extent of potentiation by the compound at this concentration of agonist was determined by non-linear curve fitting. In the second mode, several fixed concentrations of the present compounds were added to various wells on a plate, followed by a range of concentrations of agonist for each concentration of present compound; the EC50 values for the agonist at each concentration of compound were determined by non-linear curve fitting. A decrease in the EC50 value of the agonist with increasing concentrations of the present compounds (a leftward shift of the agonist concentration-response curve) is an indication of the degree of mGluR5 potentiation at a given concentration of the present compound. An increase in the EC50 value of the agonist with increasing concentrations of the present compounds (a rightward shift of the agonist concentration-response curve) is an indication of the degree of mGluR5 antagonism at a given concentration of the present compound. The second mode also indicates whether the present compounds also affect the maximum response to mGluR5 to agonists.
Table 1 below lists specific compounds as well as experimentally determined mGluR5 activity determined in a cell-based assay. The examples shown in Table I are provided so that the invention might be more fully understood, and these examples are illustrative only and should not be construed as limiting the invention in any way. The mGluR5 activity was determined using the metabotropic glutamate receptor activity assays in human embryonic kidney cells as described herein, wherein the human embryonic kidney cells were transfected with human mGluR5. The compounds in Table 1 were synthesized with methods identical or analogous to those shown herein. The column labeled “Rxn” and the data thereunder indicated in Table 1 refers to the Reaction Scheme number described above. The requisite starting materials were commercially available, described in the literature, or readily synthesized by one skilled in the art of organic synthesis. Compounds shown in Table I are depicted having a basic group or acidic group and named as the free base acid. […]
For orientation: A change in cytosolic calcium serves as a functional read-out for many receptors and channels.
As to `O=C(c1ccc(F)cc1)N1CCc2ncc(COc3ccccc3)cc2C1` [Compound 1, (4-Fluorophenyl)(3-(phenoxymethyl)-7,8-dihydro-1,6-naphthyridin-6(5H)-yl)methanone], the EC50 came out at 380 nM.
Under `O=C(c1ccc(F)cc1)N1CCc2ncc(COc3cccc(F)c3)cc2C1` [Compound 2, (3-((3-fluorophenoxy)methyl)-7,8-dihydro-1,6-naphthyridin-6(5H)-yl) (4-fluorophenyl)methanone] stands 690 nM; under `O=C(c1ccc(F)cc1)N1CCc2ncc(COc3ccc(F)cc3)cc2C1` [Compound 3, (3-((4-fluorophenoxy)methyl)-7,8-dihydro-1,6-naphthyridin-6(5H)-yl)(4-fluorophenyl)methanone], 910 nM.
Regarding `CC(C)(C)OC(=O)N1CCc2ncc(OCc3cccc(F)c3)cc2C1` [Compound 4], the EC50 is > 30000 nM.
Under `O=C(c1cccc(F)c1)N1CCc2ncc(OCc3cccc(F)c3)cc2C1` [Compound 5] stands > 30000 nM; under `O=C(C1CC1)N1CCc2ncc(OCc3cccc(F)c3)cc2C1` [Compound 6], > 30000 nM.
